Assay results as given in patent US20200093764A1, “TREATMENT OF ASTHMA WITH CYSTEAMINE” (CHILDREN'S HOSPITAL MEDICAL CENTER, priority 2017, published 2020).

Assays:
Assay type in all cases: in vivo
WT BALB/c mice [1] = assay: Cysteamine therapeutic treatment after HDM-induced asthma is established (Example 2); settings: cysteamine 50 mg/kg for seven days
Description: WT BALB/c mice underwent 6 intratracheal challenges to an allergen (e.g., HDM (25 μg)) to induce asthma development. Control mice underwent 6 intratracheal challenges to saline instead. The next day a subset of mice received cysteamine (50 mg/kg) treatment for seven days (on challenge days, mice received treatment 30 minutes prior to challenge). See FIG. 2A for the treatment and challenge protocol. The mice were sacrificed 24 hours after the last challenge.
To determine the effectiveness of the treatment, airway responsiveness was measured as follows. 24 hours after the last challenge, invasive measurements were made with the FlexiVent apparatus (SCIREQ). Dynamic resistance was assessed after exposure to increasing concentrations of aerosolized methacholine ([…]).
Bronchoalveolar lavage was performed by means of tracheal cannulation. Lungs were lavaged with 1 mL of 1×HBSS. The collected BALF was centrifuged, and total cell numbers were counted with a hemocytometer. Cells were spun onto slides and stained with the HEMA3 stain set. After the slides were cover slipped and de-identified, 200 cells were counted, and the total number of each cell type was calculated.
To observe Th2, Th17, and Th1 cytokine production, lung cells were ex vivo stimulated with phorbol 12-myristate 13-acetate (PMA)+ionomycin (0.05 μg/mL and […], respectively) for an hour prior to the addition of Brefeldin-A for an additional 2.5 hours. Cells were stained with combinations of CD4-FITC, γδT-cell receptor-PE/Cy7, CD3-AF700, CD44-Pacific Blue, and Live/dead-BV510. After fixation and permeabilization cells were intracellularly stained with IL-13-PE, IL-17A-AF647, IFN-γ-PerCP5.5. Image an data acquisition was done on a FACSCanto III and analyzed with FlowJo software.

WT BALB/c mice [2] = assay: Oral cysteamine treatment in HDM-induced asthma with recall challenge (Example 6)
Description: Control mice underwent 9 intratracheal challenges to saline instead. Once asthma was established, a subset of mice received cysteamine (6.25 or 12.5 mg/kg) or saline vehicle oral treatment 4 times a day for 2 weeks. On the 14th day, all mice received a single HDM recall challenge. Mice received scheduled oral treatment prior to airway responsiveness measurement. To determine the effectiveness of the treatment, airway responsiveness was measured as follows. 24 hours after the last challenge invasive measurements were made with the FlexiVent apparatus (SCIREQ). Dynamic resistance was assessed after exposure to increasing concentrations of aerosolized methacholine (0, 6.25, 12.5, 25, and 50 mg/kg). Bronchoalveolar lavage was performed by means of tracheal cannulation. Lungs were lavaged with 1 mL of 1×HBSS. The collected BALF was centrifuged, and total cell numbers counted with a hemocytometer. Lungs were removed, and the upper right lobe was minced and incubated at 37° C. for 30 minutes in 1 mL of RPMI 1640 containing Liberase TL (0.5 mg/mL) and DNAse I (0.5 mg/mL). Lung cells were passed through a 70-μm cell strainer with a syringe rubber, and the strainer was washed with 5 mL of RPMI plus DNAse I media. Cells were centrifuged and re-suspended in 1 mL of PBS plus 0.5% BSA plus 2 mmol/L EDTA before being counted on a hemocytometer.

[3] = Drug kinetics of cysteamine in mouse serum (Example 4)
Text: FIG. 4A is a table showing drug kinetics in mouse serum after administration of cysteamine. FIG. 4B is a chart showing the cysteamine concentrations in μmol/L over the time after the ends of cysteamine infusion in minutes.

WT BALB/c mice [4] = assay: Lower doses of cysteamine (Cystagon) to block allergen-induced asthma exacerbation (Example 3)
Description: Control mice underwent 9 intratracheal challenges to saline instead. Once asthma was established, a subset of mice received cysteamine (e.g., Cystagon®, which corresponds to cysteamine bitartrate) at various doses (6.25, 12.5, 25, or 50 mg/kg) or saline vehicle intraperitoneal (i.p.) treatment 3 times every day for 2 weeks. On the 14th day, all mice received a single HDM recall challenge. Mice received scheduled i.p. treatment prior to airway responsiveness measurement.
To determine the effectiveness of the treatment, airway responsiveness was measured as follows. 24 hours after the last challenge invasive measurements were made with the FlexiVent apparatus (SCIREQ). Dynamic resistance was assessed after exposure to increasing concentrations of aerosolized methacholine (0, 6.25, 12.5, 25, and 50 mg/kg).
To observe Th2/Th17 cytokine production, lung cells were ex vivo stimulated with phorbol 12-myristate 13-acetate (PMA)+ionomycin (0.05 μg/mL and 0.50 μg/mL, respectively) for an hour prior to the addition of Brefeldin-A for an additional 2.5 hours. Cells were stained with combinations of CD4-FITC, γδT-cell receptor-PE/Cy7, CD3-AF700, CD44-Pacific Blue, and Live/dead-BV510. After fixation and premeabilization cells were intracellularly stained with IL-13-PE, IL-17A-AF647, IFN-γ-PerCP5.5. Image and data acquisition was done on a FACSCanto III and analyzed with FlowJo software.

[5] = tested on: WT BALB/c and VNN1 KO mice; assay: Prophylactic cysteamine treatment in HDM-challenged experimental asthma model (Example 1); settings: for asthma development: cysteamine hydrochloride 50 mg/kg i.p. every day, HDM 25 μg i.t. 3 times a week for 3 weeks; for airway hyper-responsiveness (AHR) development: mice, oral or IP administration, methacholine challenge, FlexiVent dynamic resistance
Text: Steroid non-responsive mice (e.g., vanin 1 (VNN1) knock-out (KO) mice) and normal mice (e.g., wild type (WT) BALB/c mice) were used in an experimental asthma model. Since VNN1 KO mice lack tissue cysteamine, these mice were used to determine whether replacement of cysteamine would be sufficient to restore responsiveness to a steroid treatment.
WT BALB/c and VNN1 KO mice were started on cysteamine replacement treatment (e.g., as illustrated in FIG. 1A) one day prior to the start of intratracheal (i.t.) challenges. Mice then received one intraperitoneal (i.p.) injection of cysteamine hydrochloride (50 mg/kg) or saline every day. Mice were challenged 3 times a week for 3 weeks to an allergen (e.g., house dust mite (HDM, 25 μg in 50 μl saline)) or saline. A subset of mice from each group received a corticosteroid (e.g., dexamethasone (3 mg/kg)) treatment during the last 4 days of the experiment.
To determine the effectiveness of the treatment, airway responsiveness was measured as follows. 24 hours after the last challenge, invasive measurements were made with the FlexiVent apparatus (SCIREQ). Mice were anesthetized with ketamine, xylazine, and acepromazine (100, 20, and 10 mg/mL, respectively, mixed at a ratio of 4:1:1). Mouse tracheas were cannulated with a 19-gauge blunt needle, and the mice were ventilated at 150 breaths/min and 3.0 cm H2O positive end-expiratory pressure. Two total lung capacity perturbations were then performed for airway recruitment before baseline measurement, and subsequent methacholine challenges were performed. Dynamic resistance was assessed after exposure to increasing concentrations of aerosolized methacholine (0, 12.5 and 25 mg/mL). The average of the 3 highest dynamic resistance values with a coefficient of determination of 0.9 or greater (as determined by using FlexiVent software) was used to determine the dose-response curve.

WT BALB/c mice [6] = assay: Cysteamine vs. corticosteroid (dexamethasone) in HDM-induced asthma (Example 5)
Description: WT BALB/c mice underwent 6 intratracheal challenges to an allergen (e.g., HDM (25 μg)) to induce asthma development. Control mice underwent 6 intratracheal challenges to saline instead. When asthma was established, a subset of mice received cysteamine (50 mg/kg) treatment for seven days (on challenge days, mice received treatment 30 minutes prior to challenge). A subset of mice received corticosteroid (e.g., dexamethasone) treatment (3 mg/kg) during the last four days.
To determine the effectiveness of the treatment, airway responsiveness was measured as follows. 24 hours after the last challenge, invasive measurements were made with the FlexiVent apparatus (SCIREQ). Dynamic resistance was assessed after exposure to increasing concentrations of aerosolized methacholine (0, 12.5, and 50 mg/kg).
To observe Th2/Th17 cytokine production, lung cells were ex vivo stimulated with phorbol 12-myristate 13-acetate (PMA)+ionomycin (0.05 μg/mL and […], respectively) for an hour prior to the addition of Brefeldin-A for an additional two and a half hours. Cells were stained with combinations of CD4-FITC, γδT-cell receptor-PE/Cy7, CD3-AF700, CD44-Pacific Blue, and Live/dead-BV510. After fixation and premeabilization cells were intracellularly stained with IL-13-PE, IL-17A-AF647, IFN-γ-PerCP5.5. Image and data acquisition was done on a FACSCanto III and analyzed with FlowJo software.

[7] = mice with asthma, Cystagon i.p. for 2 weeks

## NCCS [Cysteamine, 2-aminoethanethiol]
WT BALB/c mice [1]; mice with asthma (6 i.t. HDM challenges)
  asthma occurrence: significantly decrease asthma occurrence
WT BALB/c mice [1]; mice with asthma
  airway inflammation: reduced airway inflammation
  presence of eosinophils and neutrophils in the bronchoalveolar lavage fluid: decreased the presence of eosinophils and neutrophils
WT BALB/c mice [1]; mice with asthma, flow cytometry after PMA+ionomycin
  presence of pathogenic T effector populations (Th2/Th17) in the lungs: reduction in the presence of pathogenic T effector populations (Th2/Th17)
WT BALB/c mice [1]; mice with asthma, methacholine challenge
  airway hyper-responsiveness (AHR) development: blocked airway hyper-responsiveness (AHR) development
WT BALB/c mice [2]; WT mice with asthma (9 i.t. HDM), cysteamine 6.25 or 12.5 mg/kg oral 4 times a day for 2 weeks, HDM recall challenge
  AHR: decreased AHR
WT BALB/c mice [2]; WT mice with asthma, cysteamine 6.25 or 12.5 mg/kg oral 4 times a day for 2 weeks
  airway inflammation (BALF counts, lung cells): decreased
WT BALB/c mice [2]; oral cysteamine 6.25 or 12.5 mg/kg 4 times a day for 2 weeks
  oral treatment compared with IP injection: equivalent to IP injection
[3]; mouse serum, after end of cysteamine infusion
  cysteamine concentration in mouse serum in the time after infusion ended: rapidly degraded
[3]; stated in Example 3 results as reason for q.i.d. dosing
  half-life: short half-life
WT BALB/c mice [4]; 6.25 mg/kg dose, Cystagon i.p. for 2 weeks, HDM recall challenge
  reducing AHR: effective at reducing AHR
WT BALB/c mice [4]; Cystagon i.p. for 2 weeks, doses tested 6.25, 12.5, 25, 50 mg/kg
  dose at which maximal effectiveness on AHR was achieved: 12.5 mg/kg/day
WT BALB/c mice [4]; cysteamine at 6.25, 12.5, and 50 mg/kg, i.p. for 2 weeks
  presence of eosinophils and neutrophils in the bronchoalveolar lavage fluid: significantly decreased the presence of eosinophils and neutrophils
WT BALB/c mice [4]; mice with asthma (9 i.t. HDM), Cystagon (cysteamine bitartrate) 6.25-50 mg/kg i.p. 3 times every day for 2 weeks, HDM recall challenge
  blocking AHR: effective at blocking AHR
WT BALB/c mice [4]; [7]
  airway inflammation: reduced airway inflammation
  presence of pathogenic T effector populations (Th2/Th17) in the lungs: significantly decreased the presence of pathogenic T effector populations (Th2/Th17)
[5]; VNN1 KO mice
  asthma development: significantly prevented asthma
[5]
  airway hyper-responsiveness (AHR) development: blocked airway hyper-responsiveness (AHR) development
[5]; normal (WT BALB/c) mice
  asthma development: significantly prevented asthma
WT BALB/c mice [6]; WT mice with asthma (6 i.t. HDM), cysteamine 50 mg/kg for seven days
  AHR: decreased AHR
WT BALB/c mice [6]; WT mice, cysteamine 50 mg/kg for seven days
  presence of Th1, Th2, and Th17 cells in the lungs: significantly decreased the presence of Th1, Th2, and Th17 cells
WT BALB/c mice [6]; cysteamine 50 mg/kg seven days vs dexamethasone 3 mg/kg last four days
  difference between the cysteamine and dexamethasone treatment groups: no significant differences

## NCCSSCCN [cystamine]
[5]
  airway hyper-responsiveness (AHR) development: blocked airway hyper-responsiveness (AHR) development
